Data from patent publication US9603888B2, “Pea protein peptides with anti Helicobacter pylori activity” (priority 2010, dated 2017).
“And” between values parts separate entries of the source, which are not always exact repeats. Equal values may be shown once. Where no end group is shown, it is not given here.

How the values were obtained:
[1] = tested on: FITC-labelled H. pylori on AGS cells; assay: Flow cytometric anti-adhesion assay of FITC-labelled H. pylori on AGS cells; settings: for reduction of adhesion: fragments of S3
Procedure: H. pylori was incubated for 48 h under microaerophilic conditions at 37° C. on Tryptic Soy Agar (Becton Dickinson, Germany), supplemented with 5% defibrinated sheep blood (Oxoid, UK).
Human gastric epithelial cells (AGS cells) were grown in RPMI 1640 with L-glutamine (PAA, Germany), supplemented with 10% FCS, on tissue culture flasks (75 cm^2, Sarstedt, USA) and 6-well-plates (Sarstedt, USA) in 5% CO2.
Agar grown H. pylori were harvested and resuspended in sterile carbonate buffer (pH 9.0) to a density of about 1.0×10^8 bacteria per ml. 10 μl of a FITC solution (1% in DMSO) were added and incubated with the bacteria for 45 min. Fluorescent labelling was terminated by pelleting the bacteria (3.150×g, 5 min). Bacteria were washed twice in PBS to remove excess FITC and were gently resuspended for further use.

[2] = tested on: FITC-labelled H. pylori on human gastric mucosa; assay: In situ adhesion assay on histological sections of human gastric mucosa; type: cell-based; settings: 300 μM
Procedure: In situ experiments with histological sections of human gastric mucosa and FITC-labelled H. pylori were performed according to Lengsfeld et al, 2004, J. Agricul. Food Chem: 52, 1495-1503, and evaluated by fluorescent microscopy. The adhesion of FITC-labelled H. pylori to the epithelium was assessed by fluorescent microscopy and imaging. The quantity of adhering bacteria to the epithelial surface was evaluated under double blinded conditions. Maximal adhesion was expressed as total 100% adhesion. The fluorescence area intensity was calculated by ImageJ® software (Olympus, Germany), standardizing the fluorescent area of the negative control as 100%.

[3] = tested on: OMP BabA; assay: Dot blot glycoconjugate assay, BabA ligands (Lewis b, H type I); type: binding; settings: pre-treatment of H. pylori
[4] = tested on: H. pylori outer membrane proteins (OMP); assay: Dot blot glycoconjugate assay, adhesins in general; type: binding; settings: pre-treatment of H. pylori
[5] = 75 μM, untreated control = 100%
[6] = 150 μM, untreated control = 100%

Compound | rel. adhesion in [%] (±SEM; n = 3) [1, 5] | rel. adhesion in [%] (±SEM; n = 3) [1, 6] | other results
CC(=O)N[C@H]1[C@H]([C@H](O)[C@H](O)CO)O[C@@](O[C@H]2[C@@H](O)[C@@H](CO)O[C@@H](O[C@H]3[C@H](O)[C@@H](O)C(O)O[C@@H]3CO)[C@@H]2O)(C(=O)O)C[C@@H]1O (stereo partly shown) [positive control, 3′sialyllactose, reference compound] | – | – | rel. adhesion in [%] (±SEM; n = 3) ([1]; positive control 3′sialyllactose 15 mM): 70 ± 5%
AFNVNR [S3B] | 97 ± 4% | 104 ± 1% | –
Asp-Ala-Phe [S3H] | 104 ± 6% | 105 ± 1% | antiadhesive activity against H. pylori (in words) [1]: inactive
Asp-Phe-Leu-Glu-Asp (DFLED) [S3A] | 102 ± 3% | 108 ± 6% | –
DAFNVNR [S3D] | 89 ± 4% | 89 ± 3% | reduction of adhesion [1]: about 10%
DFLEDAF [S3F] | 85 ± 3% | 90 ± 5% | reduction of adhesion [1]: about 10%
DFLEDAFNV [S3E] | 91 ± 4% | 91 ± 4% | reduction of adhesion [1]: about 10%
DFLEDAFNVNR [S3] | 81% and 81 ± 3% | 83% and 83 ± 6% | inhibition of adhesion in situ [2]: about 40%; bacterial interaction with Lewis b-HSA conjugate [3]: inhibition; influence on other adhesins (other than BabA / Lewis b-HSA) [4]: not significantly influenced; antiadhesive activity against H. pylori (in words) [1]: inhibit adhesion
ELAFPGSAQEVDR [S5] | 94 ± 2% | 85 ± 2% | bacterial interaction with Lewis b-HSA conjugate [3]: inhibition; influence on other adhesins (other than BabA / Lewis b-HSA) [4]: not significantly influenced; antiadhesive activity against H. pylori (in words) [1]: inhibit adhesion; inhibition of adhesion ([1]; 75 μmol): 6%; inhibition of adhesion ([1]; 150 μmol): 17%
GDFELVGQR [S6] | 94 ± 3% | 97 ± 2% | –
LDALEPDNRIESEGGLIETWNPNNK [S1] | 95 ± 10% | 104 ± 7% | –
LEDAFNV [S3G] | 93 ± 2% | 94 ± 3% | reduction of adhesion [1]: about 10%
LEDAFNVNR [S3C] | 95 ± 5% | 100 ± 4% | –
LNIGPSSSPDIYNPEAGR [S2] | 93 ± 8% | 94 ± 6% | –
WEREEDEEQVDEEWR [S4] | 98 ± 2% | 107 ± 2% | –
